According to PubChem BioAssay (NCI):
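These data come from cells grown in 96-well plates and exposed to compound for 48 hours at five concentrations. GI50 marks 50% less growth. TGI: total growth inhibition.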

Legend:
Experiment in all cases: NCI tumour cell line growth inhibition, 48 h
A549 NSCLC = tested on: A549 NSCLC
EKVX NSCLC = tested on: EKVX NSCLC
HT29 colon = tested on: HT29 colon
M14 melanoma = tested on: M14 melanoma
NCI-H226 lung = tested on: NCI-H226 lung
NCI-H23 lung = tested on: NCI-H23 lung
OVCAR-4 ovarian = tested on: OVCAR-4 ovarian
SNB-19 CNS = tested on: SNB-19 CNS
SR leukemia = tested on: SR leukemia

Row | Compound | TGI (A549 NSCLC) | TGI (EKVX NSCLC) | TGI (HT29 colon) | TGI (M14 melanoma) | TGI (NCI-H226 lung) | TGI (NCI-H23 lung) | TGI (OVCAR-4 ovarian) | TGI (SNB-19 CNS) | TGI (SR leukemia) | GI50 (M14 melanoma) | GI50 (NCI-H23 lung) | GI50 (SNB-19 CNS)
1 | NC(CC(O)(c1ccccc1)c1ccccc1)c1ccccc1S (stereo not drawn) | 29.5 µM | 25.1 µM | 37.5 µM | 29 µM | 29.8 µM | 37.7 µM | 29.7 µM | 32.4 µM | > 100 µM |  |  | 
2 | CC(=O)OC(C)(C)CCC(=O)[C@](C)(O)[C@H]1[C@H](O)C[C@@]2(C)[C@@H]3CC=C4C(C)=C(OC5OC(CO)C(O)C(O)C5O)C(=O)C[C@@H]4[C@]3(C)C(=O)C[C@]12C (stereo partly drawn) | > 100 µM | > 100 µM | > 100 µM | > 100 µM | > 100 µM | > 100 µM | > 100 µM | > 100 µM | > 100 µM |  |  | 
3 | O=C(O)CCc1ccc2c(c1)CC1(Cc3ccccc3C1)C2 | > 100 µM | > 100 µM | > 100 µM | > 100 µM | > 100 µM | > 100 µM | > 100 µM |  | > 100 µM |  |  | 
4 | CN(Cc1cnc2nc(N)nc(N)c2n1)c1ccc(C(=O)NC(CCC(=O)NC(CC(P(=O)(O)O)P(=O)(O)O)C(=O)O)C(=O)O)cc1 (stereo not drawn) | > 100 µM | > 100 µM | > 100 µM | > 100 µM | > 100 µM | > 100 µM | > 100 µM | > 100 µM | > 100 µM |  |  | 
5 | CC12ON(P(=O)(c3ccccc3)c3ccccc3)C(C)(c3ccccc31)c1ccccc12 | > 100 µM | > 100 µM | > 100 µM | > 100 µM | > 100 µM | > 100 µM | > 100 µM | > 100 µM | > 100 µM |  |  | 
6 | O=[N+]([O-])c1ccc(O)c(/C=N/c2nc(-c3ccccc3)cs2)c1 | > 100 µM | > 100 µM | > 100 µM | > 92.1 µM | 85.3 µM | 49.6 µM | > 100 µM | > 100 µM | 21.7 µM |  |  | 
7 | CC(=O)OC(C)c1cc2c(s1)C(=O)c1c(C(C)OC(C)=O)csc1C2=O (stereo not drawn) | 4.52 µM | 3.22 µM | 4.35 µM | 1.79 µM | 3.62 µM | 2.29 µM | 2.75 µM |  | > 100 µM | 516 nM | 0.878 µM | 
8 | CC1=CCC[C@H]2[C@](C)(CC3=CC(=O)C(Sc4ccccc4)=CC3=O)[C@@H](C)CC[C@]12C | 33.3 µM | 38.9 µM |  | 33.7 µM | 27.8 µM | 28.2 µM | 43.7 µM | 38.8 µM | 48.3 µM |  | 14.7 µM | 
9 | COc1cc2c(cc1OC)[C@@](C)(C(O)C(O)C(C)(C)O)NCC2 (stereo partly drawn) | > 100 µM | > 100 µM | > 100 µM | > 100 µM | > 100 µM | > 100 µM | > 100 µM | > 100 µM | > 100 µM |  |  | 
10 | COc1ccc(C2SCC(=O)N2NC(=O)C(C)Oc2ccccc2C)cc1 (stereo not drawn) | > 100 µM | > 100 µM | > 100 µM | > 100 µM | > 100 µM | > 100 µM | > 100 µM | > 100 µM | > 100 µM |  |  | 
11 | COc1c(C)c(C/C=C(\C)CC/C=C(\C)CC/C=C(\C)CCC=C(C)C)c(OC)c2ccccc12 | > 100 µM | > 100 µM | > 100 µM | > 100 µM |  | > 100 µM | > 100 µM | > 100 µM | 90.6 µM |  |  | 
12 | COC(=O)c1ccccc1C1=C([N+](=O)[O-])C(c2ccccc2)C(C#N)=C(N)O1 (stereo not drawn) | > 100 µM | > 100 µM | > 100 µM | > 100 µM | > 100 µM | > 100 µM |  | > 100 µM | > 100 µM |  |  | 
13 | CCOC(=O)C(=CN1CCNC1=S)C(=O)OCC | > 100 µM | > 100 µM | > 100 µM | > 100 µM | > 100 µM | > 100 µM | > 100 µM | > 100 µM | > 100 µM |  |  | > 100 µM
14 | COc1cc(CCN(C)C)cc(OC)c1OC | > 100 µM | > 100 µM | > 100 µM | > 100 µM | > 100 µM | > 100 µM | > 100 µM | > 100 µM | > 100 µM |  |  | 
15 | Cc1cc2oc(C)c(S(=O)(=O)NC(=O)Nc3ccc(Cl)cc3)c(=O)c2c(=O)o1 | > 100 µM | > 100 µM | > 100 µM | > 100 µM | > 100 µM | > 100 µM | > 100 µM | > 100 µM | > 100 µM |  |  | 
16 | CC12CCC(C(=Nc3cc(C(F)(F)F)cc(C(F)(F)F)c3)C1=O)C2(C)C (stereo not drawn) | > 100 µM | > 100 µM | > 100 µM | > 100 µM | > 100 µM | > 100 µM | > 100 µM | > 100 µM | 46.4 µM |  |  | 
17 | CCOC(=O)c1[nH]c2cccc3c2c1CC[C@H](NC(=O)C(F)(F)F)C3=O | > 100 µM | 0.0531 µM | > 100 µM | > 100 µM | > 100 µM | > 100 µM | 80.5 µM | 46.3 µM | > 100 µM |  |  | 
18 | CN[C@@H](C)[C@@H](O)c1ccccc1 | > 100 µM | > 100 µM | > 100 µM | > 100 µM | > 100 µM | > 100 µM | > 100 µM | > 100 µM |  |  |  | 
19 | CCCc1nnc2sc(COc3cc(Cl)c(OCc4nn5c(CCC)nnc5s4)cc3Cl)nn12 | > 100 µM | 82.2 µM | > 100 µM | > 100 µM | > 100 µM | > 100 µM | 80.5 µM | > 100 µM | 1.77 µM |  |  | 
20 | CC(C)(C)OC(=O)N1[C@@H]2Cc3ccc(N)cc3[C@@]1(C)c1ccccc12 | > 100 µM | > 100 µM | 44.1 µM | 51.8 µM |  | 60.4 µM | > 100 µM | > 100 µM |  |  |  | 
21 | CCC(=O)/C(=C\I)c1ccccc1 | 37 µM | 33.6 µM | 2.51 µM | 4.72 µM | 56.7 µM | 14.4 µM |  | 29 µM |  |  |  | 
22 | COCC12CCC(OC)C34C5CC6(O)C(OC)CC(OC(C)=O)(C5C6OC(=O)c5ccccc5)C(C(OC)C13)C4N(C)C2 (stereo not drawn) | > 100 µM | > 100 µM | > 100 µM | > 100 µM | > 100 µM | > 100 µM | > 100 µM | > 100 µM | > 100 µM |  |  | 
23 | COc1ccc2[nH]c(C(=O)N3CC(CCl)c4c3cc(N)c3ccccc43)cc2c1 (stereo not drawn) |  | 0.128 µM | 1.1 µM |  | < 0.0225 µM | < 0.0109 µM | < 0.01 µM | < 0.0386 µM |  |  |  | 
